Our source for the EC50 and Ki values is patent EP2768830B1, “APOPTOSIS-INDUCING AGENTS FOR THE TREATMENT OF CANCER AND IMMUNE AND AUTOIMMUNE DISEASES” (AbbVie Inc., priority 2011, dated 2013).

Like-named read-outs stand apart in the source and are kept apart here.

Test [1] has as its system mouse FL5.12 cells transfected with Bcl-XL. The experiment in a line: FL5.12 cellular assay (cell viability, CellTiter-Glo).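 Further: each EC50 determination derived from duplicate measurements.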 Type of test: cell-based. The settings on record: FL5.12 cells transfected with Bcl-XL, IL-3-depleted, 3% FBS assay media, 24 hours, CellTiter-Glo, read-out: FL5.12 Bcl-xL, - IL3, EC 50. Background: Cellular ATP, detected with luciferase, serves as a proxy for viable cell number.

Test [2] concerns the target GST-Bcl-xL (Homo sapiens, UniProt Q07817). The settings on record: read-out: TR-FRET binding Bcl-xL Ki.

By Ki is commonly meant the dissociation constant of the complex between target and ligand, obtained from inhibition or displacement.

GST-Bcl-xL, sequence (Q07817 whole entry): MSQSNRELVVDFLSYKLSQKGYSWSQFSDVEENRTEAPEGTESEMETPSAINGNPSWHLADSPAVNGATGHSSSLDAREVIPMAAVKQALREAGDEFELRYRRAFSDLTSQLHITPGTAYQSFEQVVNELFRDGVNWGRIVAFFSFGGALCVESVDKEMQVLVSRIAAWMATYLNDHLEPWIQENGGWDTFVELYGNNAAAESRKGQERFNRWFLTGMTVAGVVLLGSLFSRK

Turning to `O=C(Nc1nc2ccccc2s1)c1cccc2c1CN(c1ccc(-c3cnn(Cc4ccccc4OCc4ccccc4)c3)c(C(=O)O)n1)CC2` [Example 31, 6-[8-(1,3-benzothiazol-2-ylcarbamoyl)-3,4-dihydroisoquinolin-2(1H)-yl]-3-{1-[2-(benzyloxy)benzyl]-1H-pyrazol-4-yl}pyridine-2-carboxylic acid], in test [1] (Mus musculus), the EC50 was above 1000 nM. For the same molecule, the Ki in test [2] was determined as 18 nM.

With `O=C(Nc1nc2ccccc2s1)c1cccc2c1CN(c1ccc(-c3cccc(OC4CCCCC4)c3F)c(C(=O)O)n1)CC2` [Example 119, 6-[8-(1,3-benzothiazol-2-ylcarbamoyl)-3,4-dihydroisoquinolin-2(1H)-yl]-3-[3-(cyclohexyloxy)-2-fluorophenyl]pyridine-2-carboxylic acid], in test [1], the EC50 was 762 nM. The Ki in test [2] was below 0.1 nM.

As to `Cc1c(-c2ccc(N3CCc4cccc(C(=O)Nc5nc6ccccc6s5)c4C3)nc2C(=O)O)cnn1CC1(OCCO)CCCCC1` [Example 169, 6-[8-(1,3-benzothiazol-2-ylcarbamoyl)-3,4-dihydroisoquinolin-2(1H)-yl]-3-(1-{[1-(2-hydroxyethoxy)cyclohexyl]methyl}-5-methyl-1H-pyrazol-4-yl)pyridine-2-carboxylic acid], the EC50 in test [1] (Mus musculus) stood at 10 nM. Besides, in test [2], the Ki is below 0.1 nM.

`COC(=O)C(c1ccccc1)n1cc(-c2ccc(N3CCc4cccc(C(=O)Nc5nc6ccccc6s5)c4C3)nc2C(=O)O)cn1` (stereo not drawn) [Example 95, 6-[8-(1,3-benzothiazol-2-ylcarbamoyl)-3,4-dihydroisoquinolin-2(1H)-yl]-3-[1-(2-methoxy-2-oxo-1-phenylethyl)-1H-pyrazol-4-yl]pyridine-2-carboxylic acid]: the EC50 in test [1] (Mus musculus) was determined as 542 nM. For the same molecule, the Ki in test [2] was found to be 11 nM.

With `Cc1ccc(S(=O)(=O)n2ccc(-c3ccc(N4CCc5cccc(C(=O)Nc6nc7ccccc7s6)c5C4)nc3C(=O)O)c2)cc1` [Example 126, 6-[8-(1,3-benzothiazol-2-ylcarbamoyl)-3,4-dihydroisoquinolin-2(1H)-yl]-3-{1-[(4-methylphenyl)sulfonyl]-1H-pyrrol-3-yl}pyridine-2-carboxylic acid], in test [1] (Mus musculus), the EC50 is above 1000 nM. For the same molecule, the inhibition constant (Ki) in test [2] amounted to 47 nM.

Regarding `CCc1c(-c2ccc(N3CCc4cccc(C(=O)Nc5nc6ccccc6s5)c4C3)nc2C(=O)O)cnn1CC1CCCCC1` [Example 84, 6-[8-(1,3-benzothiazol-2-ylcarbamoyl)-3,4-dihydroisoquinolin-2(1H)-yl]-3-[1-(cyclohexylmethyl)-5-ethyl-1H-pyrazol-4-yl]pyridine-2-carboxylic acid], the EC50 in test [1] (Mus musculus) was found to be 12 nM. In addition, the Ki in test [2] came out at 0.7 nM.

Turning to `COCCOC1(Cn2ncc(-c3ccc(N4CCc5cccc(C(=O)Nc6nc7ccccc7s6)c5C4)nc3C(=O)O)c2C)CCCCC1` [Example 101, 6-[8-(1,3-benzothiazol-2-ylcarbamoyl)-3,4-dihydroisoquinolin-2(1H)-yl]-3-(1-{[1-(2-methoxyethoxy)cyclohexyl]methyl}-5-methyl-1H-pyrazol-4-yl)pyridine-2-carboxylic acid], the EC50 in test [1] (Mus musculus) was below 1 nM. The Ki in test [2] was 0.4 nM.

As for `Cc1ccc(-c2ccc(N3CCc4cccc(C(=O)Nc5nc6ccccc6s5)c4C3)nc2C(=O)O)cc1Oc1ccccc1` [Example 108, 6-[8-(1,3-benzothiazol-2-ylcarbamoyl)-3,4-dihydroisoquinolin-2(1H)-yl]-3-(4-methyl-3-phenoxyphenyl)pyridine-2-carboxylic acid], the EC50 in test [1] (Mus musculus) is above 1000 nM. Besides, in test [2], the Ki is 9 nM.

As for `O=C(Nc1nc2ccccc2s1)c1cccc2c1CN(c1ccc(-c3cnn(-c4ccccc4)c3)c(C(=O)O)n1)CC2` [Example 23, 6-[8-(1,3-benzothiazol-2-ylcarbamoyl)-3,4-dihydroisoquinolin-2(1H)-yl]-3-(1-phenyl-1H-pyrazol-4-yl)pyridine-2-carboxylic acid], in test [1] (Mus musculus), the EC50 is above 1000 nM. In test [2], the Ki came out at 182 nM.
